Here are results for 20 compounds from patent US20160108038A1, “BICYCLIC ARYL SULFIDE AND ARYL SULFOXIDE DERIVATIVES AS PEST CONTROL AGENT” (BAYER CROPSCIENCE AKTIENGESELLSCHAFT, priority 2013, published 2016).

Like-named read-outs stand apart in the source and are kept apart here.

A short description of data set [1]: log P determination by HPLC on reversed-phase columns (C 18), analogous to OECD Guideline 117. Type of data set: physicochemical. To be noted: for chromatographic logP: reversed-phase C18 HPLC column. The protocol: The log P values were determined analogously to OECD Guideline 117 (EC Directive 92/69/EEC) by HPLC (high-performance liquid chromatography) using reversed-phase columns (C 18), by the following methods: [a] The LC-MS determination in the acidic range was effected at pH 2.7 with 0.1% aqueous formic acid and acetonitrile (contains 0.1% formic acid) as eluents; linear gradient from 10% acetonitrile to 95% acetonitrile. log P^[a] is also referred to as log P(HCOOH). [b] LC-MS determination in the neutral range was effected at pH 7.8 with 0.001 molar aqueous ammonium hydrogencarbonate solution and acetonitrile as eluents; linear gradient from 10% acetonitrile to 95% acetonitrile. log P^[…] is also referred to as log P(neutral).

Another data set relates to Tetranychus urticae. Briefly: Tetranychus urticae spray test, OP-resistant. Type of data set: in vivo. To be noted: 500 g/ha, bean leaf discs, after 6 days. The procedure:
Tetranychus urticae—Spray Test, OP-Resistant
(§1) To produce a suitable preparation of active compound, 1 part by weight of active compound is dissolved using the stated parts by weight of solvent and made up with water containing an emulsifier concentration of 1000 ppm until the desired concentration is attained. To produce further test concentrations, the preparation is diluted with emulsifier-containing water.
Discs of bean leaves (Phaseolus vulgaris) infested with all stages of the greenhouse red spider mite (Tetranychus urticae) are sprayed with an active compound preparation of the desired concentration.
After 6 days, the efficacy in % is determined. 100% means that all the spider mites have been killed; 0% means that none of the spider mites have been killed.

Another data set has as its system Boophilus microplus. Briefly: Boophilus microplus injection test. Conditions: 20 μg/animal, injection into engorged adult female cattle ticks, after 7 days; 100% = no fertile eggs. The format is in vivo. The protocol: Boophilus microplus—Injection Test Solvent: dimethyl sulfoxide To produce a suitable preparation of active compound, 10 mg of active compound are mixed with 0.5 ml of solvent and the concentrate is diluted with solvent to the desired concentration. 1 μl of the active compound solution is injected into the abdomen of 5 engorged adult female cattle ticks (Boophilus microplus). The animals are transferred into dishes and kept in a climate-controlled room. Efficacy is assessed after 7 days by laying of fertile eggs. Eggs which are not visibly fertile are stored in a climate-controlled cabinet until the larvae hatch after about 42 days. An efficacy of 100% means that none of the ticks has laid any fertile eggs; 0% means that all the eggs are fertile.

The next data set deals with Phaedon cochleariae. Briefly: Phaedon cochleariae spray test. The format is in vivo. Conditions: 500 g/ha, Chinese cabbage leaf discs, after 7 days. The protocol: Phaedon cochleariae—Spray Test
as §1
After 7 days, the efficacy in % is determined. 100% means that all the beetle larvae have been killed; 0% means that no beetle larvae have been killed.

A further data set deals with Meloidogyne incognita. Briefly: Meloidogyne incognita test. The format is in vivo. Conditions: 20 ppm, lettuce, after 14 days; 100% = no galls. The procedure: Meloidogyne incognita Test Solvent: 125.0 parts by weight of acetone To produce a suitable preparation of active compound, 1 part by weight of active compound is mixed with the stated amount of solvent and the concentrate is diluted with water to the desired concentration. Vessels are filled with sand, active compound solution, an egg/larvae suspension of the southern root-knot nematode (Meloidogyne incognita) and lettuce seeds. The lettuce seeds germinate and the plants develop. The galls develop on the roots. After 14 days, the nematicidal efficacy in % is determined by the formation of galls. 100% means that no galls were found; 0% means that the number of galls on the treated plants corresponds to the untreated control.

[2] abbreviates: acidic range, pH 2.7, 0.1% aqueous formic acid and acetonitrile, read-out: logP(HCOOH).
[3] abbreviates: neutral range, pH 7.8, 0.001 molar aqueous ammonium hydrogencarbonate and acetonitrile, read-out: logP(neutral).
[4] abbreviates: acidic range, pH 2.7, 0.1% aqueous formic acid and acetonitrile.
Where [5] appears, read: neutral range, pH 7.8, 0.001 molar aqueous ammonium hydrogencarbonate and acetonitrile.

`Cc1cc(F)c(NC(=O)c2cccnc2N)cc1SCC(F)(F)F` [2-Amino-N-{2-fluoro-4-methyl-5-[(2,2,2-trifluoroethyl)sulfanyl]phenyl}nicotinamide]: the chromatographic logP came to 1.7 in data set [1] (setting [2]) and 2.71 in data set [1] (setting [3]).
Take `Cc1nc2ncccc2c(=O)o1` [2-Methyl-4H-pyrido[2,3-d][1,3]oxazin-4-one]: the chromatographic logP came out at 0.42 in data set [1] (setting [2]) and 0.43 in data set [1] (setting [3]).
Turning to `Cc1cc(F)c(-n2cnc3ccncc3c2=O)cc1SCC(F)(F)F` [Compound 1], in data set [1] (setting [4]), the “logP(HCOOH)” value turned out to be 2.54. Further, the “logP(neutral)” value in data set [1] (setting [5]) is listed as 2.56. The “efficacy (spider mites killed)” value in the data set with Tetranychus urticae was 100%.
As to `Cc1cc(F)c(-n2cnc3ncccc3c2=O)cc1SCC(F)(F)F` [Compound 2, 3-{2-Fluoro-4-methyl-5-[(2,2,2-trifluoroethyl)sulfanyl]phenyl}-2-pyrido [2,3-d]pyrimidin-4(3H)-one], the chromatographic logP in data set [1] (setting [2]) and in data set [1] (setting [3]) was 2.43 each time. In addition, the “efficacy (spider mites killed)” value in the data set on Tetranychus urticae is reported as 90%.
Take `O=c1c2cccnc2ncn1-c1cc(SCC(F)(F)F)c(Cl)cc1Cl` [Compound 3]: in data set [1] (setting [4]), the “logP(HCOOH)” value is given as 2.73. Also, the “logP(neutral)” value in data set [1] (setting [5]) came out at 2.68.
For `Cc1cc(C)c(-n2cnc3ncccc3c2=O)cc1SCC(F)(F)F` [Compound 4], the “logP(HCOOH)” value in data set [1] (setting [4]) worked out at 2.53. The “logP(neutral)” value in data set [1] (setting [5]) was 2.54. The “efficacy (spider mites killed)” value in the data set with Tetranychus urticae was determined as 100%.
With `Cc1cc(F)c(-n2cnc3ncccc3c2=O)cc1[S+]([O-])CC(F)(F)F` (stereo not drawn) [Compound 5, 3-{2-Fluoro-4-methyl-5-[(2,2,2-trifluoroethyl)sulfinyl]phenyl}pyrido[2,3-d]pyrimidin-4(3H)-one], the chromatographic logP in data set [1] (setting [2]) and in data set [1] (setting [3]) was 1.56 each time. The “efficacy (spider mites killed)” value in the data set with Tetranychus urticae came out at 90%.
Consider `Cc1cc(C)c([S+]([O-])CC(F)(F)F)cc1-n1cnc2ncccc2c1=O` (stereo not drawn) [Compound 6], for which the “logP(HCOOH)” value in data set [1] (setting [4]) is reported as 1.62. In data set [1] (setting [5]), the “logP(neutral)” value is on record as 1.61. The “efficacy (spider mites killed)” value with Tetranychus urticae turned out to be 100%. The “efficacy (laying of fertile eggs)” value with Boophilus microplus is 100%.
For `O=c1c2cccnc2ncn1-c1cc([S+]([O-])CC(F)(F)F)c(Cl)cc1Cl` (stereo not drawn) [Compound 7], the “logP(HCOOH)” value in data set [1] (setting [4]) amounted to 1.98. The “logP(neutral)” value in data set [1] (setting [5]) is 1.84. Also, the “efficacy (spider mites killed)” value in the data set on Tetranychus urticae is 90%.
On to `Cc1cc(F)c(-n2c(C)nc3ncccc3c2=O)cc1SCC(F)(F)F` [Compound 8, 3-{2-Fluoro-4-methyl-5-[(2,2,2-trifluoroethyl)sulfanyl]phenyl}-2-mehtylpyrido[2,3-d]pyrimidin-4(3H)-one], for which the chromatographic logP was found to be 2.55 in data set [1] (setting [2]) and 2.52 in data set [1] (setting [3]). Besides, the “efficacy (spider mites killed)” value in the data set on Tetranychus urticae turned out to be 100%.
For the compound `Cc1cc(F)c(-n2cnc3cccnc3c2=O)cc1SCC(F)(F)F` [Compound 9], the “logP(HCOOH)” value in data set [1] (setting [4]) amounted to 2.33. Besides, the “efficacy (spider mites killed)” value in the data set on Tetranychus urticae is reported as 100%.
On to `Cc1cc(F)c(-n2c(C)nc3ncccc3c2=O)cc1[S+]([O-])CC(F)(F)F` (stereo not drawn) [Compound 10, 3-{2-Fluoro-4-methyl-5-[(2,2,2-trifluoroethyl)sulfinyl]phenyl}-2-mehtylpyrido[2,3-d]pyrimidin-4(3H)-one], for which the chromatographic logP came out at 1.66 in data set [1] (setting [2]) and 1.64 in data set [1] (setting [3]). In addition, the “efficacy (spider mites killed)” value in the data set on Tetranychus urticae was determined as 100%.
`Cc1cc(F)c(-n2cnc3cccnc3c2=O)cc1[S+]([O-])CC(F)(F)F` (stereo not drawn) [Compound 11]: the “logP(HCOOH)” value in data set [1] (setting [4]) is 1.49. Further, the “logP(neutral)” value in data set [1] (setting [5]) amounted to 1.46. The “efficacy (beetle larvae killed)” value in the data set with Phaedon cochleariae turned out to be 100%. In addition, the “efficacy (spider mites killed)” value in the data set with Tetranychus urticae came to 100%.
As to `Cc1cc(F)c(-n2cnc3cnccc3c2=O)cc1SCC(F)(F)F` [Compound 12], the “logP(HCOOH)” value in data set [1] (setting [4]) was found to be 2.55. In data set [1] (setting [5]), the “logP(neutral)” value is 2.56.
As to `Cc1cc(F)c(-n2cnc3cnccc3c2=O)cc1[S+]([O-])CC(F)(F)F` (stereo not drawn) [Compound 13], in data set [1] (setting [4]), the “logP(HCOOH)” value amounted to 1.60. Also, the “logP(neutral)” value in data set [1] (setting [5]) came out at 1.63. Moreover, the “efficacy (spider mites killed)” value with Tetranychus urticae is 100%.
`Cc1cc(F)c(-n2cnc3ccncc3c2=O)cc1[S+]([O-])CC(F)(F)F` (stereo not drawn) [Compound 14]: the “logP(HCOOH)” value in data set [1] (setting [4]) is recorded as 1.61. The “logP(neutral)” value in data set [1] (setting [5]) came to 1.64. Besides, in the data set on Tetranychus urticae, the “efficacy (spider mites killed)” value was 90%. In addition, the “efficacy (laying of fertile eggs)” value in the data set on Boophilus microplus is reported as 100%.
Consider `Cc1cc(Cl)c(-n2cnc3ncccc3c2=O)cc1SCC(F)(F)F` [Compound 15], for which the “logP(HCOOH)” value in data set [1] (setting [4]) turned out to be 2.62. In data set [1] (setting [5]), the “logP(neutral)” value turned out to be 2.62.
On to `Cc1cc(C)c(-n2c(C)nc3ncccc3c2=O)cc1SCC(F)(F)F` [Compound 16], for which the “logP(HCOOH)” value in data set [1] (setting [4]) came out at 2.63. For the same compound, the “logP(neutral)” value in data set [1] (setting [5]) is listed as 2.60.
Consider `Cc1cc(C)c([S+]([O-])CC(F)(F)F)cc1-n1c(C)nc2ncccc2c1=O` (stereo not drawn) [Compound 17], for which, in data set [1] (setting [4]), the “logP(HCOOH)” value is 1.67. For the same compound, the “logP(neutral)” value in data set [1] (setting [5]) stood at 1.67. Further, the “nematicidal efficacy (formation of galls)” value in the data set on Meloidogyne incognita is recorded as 90%. Besides, in the data set with Tetranychus urticae, the “efficacy (spider mites killed)” value is listed as 90%.
As for `Cc1cc(Cl)c(-n2cnc3ncccc3c2=O)cc1[S+]([O-])CC(F)(F)F` (stereo not drawn) [Compound 18], the “logP(HCOOH)” value in data set [1] (setting [4]) stood at 1.77. Further, the “logP(neutral)” value in data set [1] (setting [5]) came to 1.73. Besides, the “efficacy (spider mites killed)” value with Tetranychus urticae came to 100%.
